Experimental data reported in PubChem BioAssay AID248 (DTP/NCI, 2004).
Several values for one entry are separate records, joined by “and”; a condition that tells them apart may be missing. Equal entries are not always repeated. Inconclusive results and toxic doses are left out. Rule as the data show it: active = T/C of 150% or more; inactive = T/C below 125%.

Tested on: L1210 leukemia ip in BDF1 mice, survival T/C
Test: NCI In Vivo Anticancer Drug Screen. Data for tumor model L1210 Leukemia (intraperitoneal) in B6D2F1 (BDF1) mice
Conditions: endpoint: mean survival time, higher = longer survival
Method in brief: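 Transplanted-tumor mice were given test agent; controls received vehicle only. Survival readings from the two groups were divided (treated over control).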

[1] = dose: 100.0 mg/kg/injection, schedule: Q04DX003 (ip), vehicle: saline
[2] = dose: 200.0 mg/kg/injection, schedule: Q04DX003 (ip), vehicle: saline
[3] = dose: 400.0 mg/kg/injection, schedule: Q04DX003 (ip), vehicle: saline
[4] = dose: 100.0 mg/kg/injection, schedule: Q04DX003 (ip), vehicle: Klucel (hydroxypropylcellulose) (HPC)
[5] = dose: 200.0 mg/kg/injection, schedule: Q04DX003 (ip), vehicle: Klucel (hydroxypropylcellulose) (HPC)
[6] = dose: 400.0 mg/kg/injection, schedule: Q04DX003 (ip), vehicle: Klucel (hydroxypropylcellulose) (HPC)
[7] = dose: 100.0 mg/kg/injection, schedule: Q01DX009 (ip), vehicle: Klucel (hydroxypropylcellulose) (HPC)
[8] = dose: 200.0 mg/kg/injection, schedule: Q01DX009 (ip), vehicle: Klucel (hydroxypropylcellulose) (HPC)
[9] = dose: 400.0 mg/kg/injection, schedule: Q01DX009 (ip), vehicle: Klucel (hydroxypropylcellulose) (HPC)

Measured: T/C

O=S(Cc1ncc2cnccn12)c1ccccc1 (stereo not given)
inactive: dose: 50.0 mg/kg/injection, schedule: Q01DX005 (ip), vehicle: saline 110 % of control | dose: 100.0 mg/kg/injection, schedule: Q01DX005 (ip), vehicle: saline 104 % of control | [1] 101 % of control | dose: 200.0 mg/kg/injection, schedule: Q01DX005 (ip), vehicle: saline 104 % of control | [2] 105 % of control | dose: 400.0 mg/kg/injection, schedule: Q01DX005 (ip), vehicle: saline 105 % of control | [3] 105 % of control

CCCCCCCCCCCCCCCCNC(=O)c1cc([N+](=O)[O-])ccc1C(=O)O
inactive: [4] 95 % of control | [5] 95 % of control | [6] 97 % of control

CCOC(=O)C(Cc1ccccc1[N+](=O)[O-])C(=O)OCC
inactive: dose: 100.0 mg/kg/injection, schedule: Q01DX001 (ip), vehicle: saline 103 % of control | dose: 100.0 mg/kg/injection, schedule: Q01DX009 (ip), vehicle: saline 103 % of control and 89 % of control | dose: 100.0 mg/kg/injection, schedule: Q04DX002 (ip), vehicle: saline 112 % of control and 113 % of control | [1] 94 % of control | dose: 200.0 mg/kg/injection, schedule: Q01DX001 (ip), vehicle: saline 101 % of control | dose: 200.0 mg/kg/injection, schedule: Q01DX009 (ip), vehicle: saline 93 % of control and 105 % of control | dose: 200.0 mg/kg/injection, schedule: Q04DX002 (ip), vehicle: saline 108 % of control | [2] 103 % of control | dose: 400.0 mg/kg/injection, schedule: Q01DX001 (ip), vehicle: saline 100 % of control | dose: 400.0 mg/kg/injection, schedule: Q01DX009 (ip), vehicle: saline 96 % of control and 105 % of control | dose: 400.0 mg/kg/injection, schedule: Q04DX002 (ip), vehicle: saline 102 % of control and 108 % of control | [3] 103 % of control

C[S+](C)(=O)/C=C(\[O-])Nc1ccccc1
inactive: [7] 101 % of control | [4] 101 % of control | [8] 92 % of control | [5] 97 % of control | [9] 97 % of control | [6] 103 % of control

Cc1ccc(S(=O)(=O)C(Cl)(Cl)Cl)cc1
inactive: dose: 100.0 mg/kg/injection, schedule: Q01DX001 (ip), vehicle: Klucel (hydroxypropylcellulose) (HPC) 96 % of control | [7] 97 % of control | dose: 200.0 mg/kg/injection, schedule: Q01DX001 (ip), vehicle: Klucel (hydroxypropylcellulose) (HPC) 96 % of control | [8] 104 % of control | dose: 400.0 mg/kg/injection, schedule: Q01DX001 (ip), vehicle: Klucel (hydroxypropylcellulose) (HPC) 102 % of control | [9] 104 % of control

COc1ccc(/C(=N\N=C(N)N)C2CC2)cc1
inactive: dose: 120.0 mg/kg/injection, schedule: Q01DX Z (oral), vehicle: carboxymethylcellulose (CMC) 90 % of control
